Read-outs that look alike come from different tables or passages of the source.
Tests used:
Experiment in all cases: biochemical
[1] = molecular target: T1, panel of 374 wild-type kinases (Homo sapiens, UniProt P04629); settings: read-out: % Enzyme Activity (relative to DMSO controls), kinase TRKA
T1 construct: purchased Reaction Biology Corporation

[2] = molecular target: T2, panel of 374 wild-type kinases (Homo sapiens, UniProt P07949); settings: read-out: % Enzyme Activity (relative to DMSO controls), kinase RET
T2 construct: purchased Reaction Biology Corporation

[3] = molecular target: T3, panel of 374 wild-type kinases (Homo sapiens, UniProt P08069); settings: read-out: % Enzyme Activity (relative to DMSO controls), IGF1R
T3 construct: purchased Reaction Biology Corporation

[4] = molecular target: T4, panel of 374 wild-type kinases (Homo sapiens, UniProt P31751); settings: read-out: % Enzyme Activity (relative to DMSO controls), AKT2
T4 construct: purchased Reaction Biology Corporation

[5] = molecular target: T5, panel of 374 wild-type kinases (Homo sapiens, UniProt P41279); settings: read-out: % Enzyme Activity (relative to DMSO controls), COT1/MAP3K8
T5 construct: purchased Reaction Biology Corporation

[6] = molecular target: T6, panel of 374 wild-type kinases (Homo sapiens, UniProt P42685); settings: read-out: % Enzyme Activity (relative to DMSO controls), FRK/PTK5
T6 construct: purchased Reaction Biology Corporation

[7] = molecular target: T7, panel of 374 wild-type kinases (Homo sapiens, UniProt P45985); settings: read-out: % Enzyme Activity (relative to DMSO controls), MKK4
T7 construct: purchased Reaction Biology Corporation
T7 sequence (P45985 1-399): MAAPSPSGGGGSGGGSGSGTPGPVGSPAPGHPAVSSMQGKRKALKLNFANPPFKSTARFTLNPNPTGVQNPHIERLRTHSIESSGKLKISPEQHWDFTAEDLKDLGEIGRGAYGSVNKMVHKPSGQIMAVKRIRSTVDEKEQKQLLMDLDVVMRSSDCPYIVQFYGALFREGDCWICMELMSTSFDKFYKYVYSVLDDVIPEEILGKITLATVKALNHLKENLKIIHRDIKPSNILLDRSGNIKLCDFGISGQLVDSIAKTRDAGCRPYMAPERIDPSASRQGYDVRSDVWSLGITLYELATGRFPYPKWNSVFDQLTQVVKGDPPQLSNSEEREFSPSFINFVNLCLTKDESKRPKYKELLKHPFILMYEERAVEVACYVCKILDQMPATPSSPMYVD

[8] = molecular target: T8, panel of 374 wild-type kinases (Homo sapiens, UniProt P49674); settings: read-out: % Enzyme Activity (relative to DMSO controls), CK1epsilon
T8 construct: purchased Reaction Biology Corporation

[9] = molecular target: T9, panel of 374 wild-type kinases (Homo sapiens, UniProt P57059)
T9 construct: purchased Reaction Biology Corporation

[10] = molecular target: T10, panel of 374 wild-type kinases (Homo sapiens, UniProt Q15569); settings: read-out: % Enzyme Activity (relative to DMSO controls), kinase TESK1
T10 construct: purchased Reaction Biology Corporation

[11] = molecular target: T11, panel of 374 wild-type kinases (Homo sapiens, UniProt Q16620); settings: read-out: % Enzyme Activity (relative to DMSO controls), kinase TRKB
T11 construct: purchased Reaction Biology Corporation

[12] = molecular target: T12, panel of 374 wild-type kinases (Homo sapiens, UniProt Q8IVH8); settings: read-out: % Enzyme Activity (relative to DMSO controls), GLK/MAP4K3
T12 construct: purchased Reaction Biology Corporation
T12 sequence (Q8IVH8 1-894): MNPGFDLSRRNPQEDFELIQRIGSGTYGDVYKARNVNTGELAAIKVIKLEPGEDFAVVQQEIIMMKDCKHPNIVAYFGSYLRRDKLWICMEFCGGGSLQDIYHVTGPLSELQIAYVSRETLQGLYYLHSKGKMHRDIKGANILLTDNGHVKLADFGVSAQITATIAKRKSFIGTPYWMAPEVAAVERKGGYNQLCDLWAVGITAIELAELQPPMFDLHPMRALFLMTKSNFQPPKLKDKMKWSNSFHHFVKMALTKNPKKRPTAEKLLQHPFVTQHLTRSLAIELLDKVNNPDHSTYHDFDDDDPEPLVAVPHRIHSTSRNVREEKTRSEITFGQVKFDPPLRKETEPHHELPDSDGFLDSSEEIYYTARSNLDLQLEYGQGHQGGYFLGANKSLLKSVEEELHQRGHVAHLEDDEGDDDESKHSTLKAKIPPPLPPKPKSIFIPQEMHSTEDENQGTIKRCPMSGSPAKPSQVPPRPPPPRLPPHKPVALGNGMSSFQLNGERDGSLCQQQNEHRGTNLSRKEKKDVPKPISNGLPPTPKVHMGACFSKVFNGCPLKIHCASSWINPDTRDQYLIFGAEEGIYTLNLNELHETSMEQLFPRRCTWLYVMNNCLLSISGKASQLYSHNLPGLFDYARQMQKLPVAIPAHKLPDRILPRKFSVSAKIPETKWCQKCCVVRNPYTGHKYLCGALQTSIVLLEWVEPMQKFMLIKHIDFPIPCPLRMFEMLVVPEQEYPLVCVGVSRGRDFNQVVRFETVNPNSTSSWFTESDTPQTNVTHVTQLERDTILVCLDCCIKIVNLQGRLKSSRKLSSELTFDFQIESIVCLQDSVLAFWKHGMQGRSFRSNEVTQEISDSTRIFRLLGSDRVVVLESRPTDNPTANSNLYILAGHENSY

[13] = molecular target: T13, panel of 374 wild-type kinases (Homo sapiens, UniProt Q9HAZ1); settings: read-out: % Enzyme Activity (relative to DMSO controls), CLK4
T13 construct: purchased Reaction Biology Corporation

[14] = molecular target: T14, panel of 374 wild-type kinases (Homo sapiens, UniProt Q9Y6E0); settings: read-out: % Enzyme Activity (relative to DMSO controls), MST3/STK24
T14 construct: purchased Reaction Biology Corporation

T13 sequence (Q9HAZ1 whole entry): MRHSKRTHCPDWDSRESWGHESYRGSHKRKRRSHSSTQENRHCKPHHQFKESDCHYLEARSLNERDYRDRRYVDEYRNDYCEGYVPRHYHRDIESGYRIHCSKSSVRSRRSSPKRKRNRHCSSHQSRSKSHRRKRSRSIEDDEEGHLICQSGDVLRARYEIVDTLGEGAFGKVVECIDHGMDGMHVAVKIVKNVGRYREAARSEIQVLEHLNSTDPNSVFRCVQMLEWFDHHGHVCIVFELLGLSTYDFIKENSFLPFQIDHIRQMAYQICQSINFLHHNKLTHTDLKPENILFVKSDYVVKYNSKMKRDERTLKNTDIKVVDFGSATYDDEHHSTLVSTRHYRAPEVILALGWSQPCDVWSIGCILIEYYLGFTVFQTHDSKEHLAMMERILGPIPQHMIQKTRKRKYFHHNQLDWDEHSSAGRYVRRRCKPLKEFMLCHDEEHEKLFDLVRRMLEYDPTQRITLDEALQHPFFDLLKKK
T1 sequence (P04629 33-796): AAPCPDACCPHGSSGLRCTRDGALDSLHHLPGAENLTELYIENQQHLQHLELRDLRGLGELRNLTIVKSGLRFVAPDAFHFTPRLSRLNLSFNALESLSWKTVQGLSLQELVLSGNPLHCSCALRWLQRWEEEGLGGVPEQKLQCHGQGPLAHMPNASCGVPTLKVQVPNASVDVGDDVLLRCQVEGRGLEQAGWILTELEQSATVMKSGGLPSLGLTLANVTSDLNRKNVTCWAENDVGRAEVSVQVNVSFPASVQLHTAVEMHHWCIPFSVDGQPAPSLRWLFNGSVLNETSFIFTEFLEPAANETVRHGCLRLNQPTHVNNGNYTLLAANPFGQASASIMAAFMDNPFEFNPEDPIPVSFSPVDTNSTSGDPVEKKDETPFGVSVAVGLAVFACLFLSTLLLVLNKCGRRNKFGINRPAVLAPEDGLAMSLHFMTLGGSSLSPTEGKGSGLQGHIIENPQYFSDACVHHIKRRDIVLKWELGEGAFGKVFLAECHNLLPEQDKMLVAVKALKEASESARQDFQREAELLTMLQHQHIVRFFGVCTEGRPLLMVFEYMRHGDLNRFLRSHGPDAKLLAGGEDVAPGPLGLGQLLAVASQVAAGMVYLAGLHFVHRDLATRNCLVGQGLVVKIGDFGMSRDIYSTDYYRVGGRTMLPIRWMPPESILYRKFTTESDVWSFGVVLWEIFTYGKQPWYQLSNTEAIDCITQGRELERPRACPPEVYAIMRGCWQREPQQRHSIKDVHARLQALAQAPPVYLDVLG
T2 sequence (P07949 29-1114): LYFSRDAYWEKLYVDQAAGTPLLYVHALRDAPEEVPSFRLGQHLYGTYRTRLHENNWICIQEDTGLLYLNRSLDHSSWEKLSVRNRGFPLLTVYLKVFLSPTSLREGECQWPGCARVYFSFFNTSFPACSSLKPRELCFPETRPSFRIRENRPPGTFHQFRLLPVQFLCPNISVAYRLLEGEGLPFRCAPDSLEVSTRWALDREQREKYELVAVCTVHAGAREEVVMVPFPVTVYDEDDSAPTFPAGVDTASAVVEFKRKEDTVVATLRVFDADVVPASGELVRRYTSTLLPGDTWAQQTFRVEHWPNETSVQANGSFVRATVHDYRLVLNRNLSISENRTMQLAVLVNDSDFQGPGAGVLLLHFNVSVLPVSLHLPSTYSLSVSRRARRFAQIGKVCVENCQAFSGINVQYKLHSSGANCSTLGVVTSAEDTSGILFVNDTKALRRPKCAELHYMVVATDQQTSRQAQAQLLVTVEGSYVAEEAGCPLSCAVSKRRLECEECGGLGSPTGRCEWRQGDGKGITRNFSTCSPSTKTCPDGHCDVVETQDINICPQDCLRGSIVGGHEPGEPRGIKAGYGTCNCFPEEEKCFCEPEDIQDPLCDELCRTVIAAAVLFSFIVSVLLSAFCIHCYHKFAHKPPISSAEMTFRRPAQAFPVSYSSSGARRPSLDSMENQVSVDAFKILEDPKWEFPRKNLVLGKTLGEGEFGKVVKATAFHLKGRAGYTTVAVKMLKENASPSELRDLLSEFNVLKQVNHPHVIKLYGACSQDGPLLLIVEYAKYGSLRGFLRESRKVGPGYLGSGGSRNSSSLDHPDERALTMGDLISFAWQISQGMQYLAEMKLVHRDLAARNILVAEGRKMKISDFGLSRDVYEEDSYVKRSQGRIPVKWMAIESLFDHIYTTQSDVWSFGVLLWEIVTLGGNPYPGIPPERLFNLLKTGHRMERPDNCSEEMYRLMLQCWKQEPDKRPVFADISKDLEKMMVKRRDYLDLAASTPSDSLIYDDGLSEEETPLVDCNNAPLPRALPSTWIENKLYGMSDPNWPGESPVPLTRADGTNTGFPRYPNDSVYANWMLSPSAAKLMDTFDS
T11 sequence (Q16620 32-822): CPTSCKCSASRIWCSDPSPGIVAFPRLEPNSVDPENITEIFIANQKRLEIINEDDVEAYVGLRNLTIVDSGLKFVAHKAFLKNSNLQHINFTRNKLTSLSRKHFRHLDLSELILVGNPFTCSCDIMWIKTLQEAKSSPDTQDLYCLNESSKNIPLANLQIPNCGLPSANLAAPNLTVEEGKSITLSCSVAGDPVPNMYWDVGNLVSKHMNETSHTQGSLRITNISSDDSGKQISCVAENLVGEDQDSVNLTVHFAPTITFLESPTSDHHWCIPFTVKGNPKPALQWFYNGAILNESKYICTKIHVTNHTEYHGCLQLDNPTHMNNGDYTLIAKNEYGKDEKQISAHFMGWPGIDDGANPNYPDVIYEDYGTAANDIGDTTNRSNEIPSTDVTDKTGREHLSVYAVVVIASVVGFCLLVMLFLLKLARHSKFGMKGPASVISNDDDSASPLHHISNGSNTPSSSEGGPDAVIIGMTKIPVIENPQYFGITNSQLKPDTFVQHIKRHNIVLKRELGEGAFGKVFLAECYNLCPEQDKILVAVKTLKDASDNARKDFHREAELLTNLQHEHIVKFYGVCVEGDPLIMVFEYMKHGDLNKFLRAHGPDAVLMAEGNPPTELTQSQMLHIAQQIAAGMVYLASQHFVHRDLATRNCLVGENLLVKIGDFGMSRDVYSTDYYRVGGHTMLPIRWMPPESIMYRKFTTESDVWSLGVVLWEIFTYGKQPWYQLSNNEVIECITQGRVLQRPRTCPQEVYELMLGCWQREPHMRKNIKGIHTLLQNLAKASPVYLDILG
T5 sequence (P41279 whole entry): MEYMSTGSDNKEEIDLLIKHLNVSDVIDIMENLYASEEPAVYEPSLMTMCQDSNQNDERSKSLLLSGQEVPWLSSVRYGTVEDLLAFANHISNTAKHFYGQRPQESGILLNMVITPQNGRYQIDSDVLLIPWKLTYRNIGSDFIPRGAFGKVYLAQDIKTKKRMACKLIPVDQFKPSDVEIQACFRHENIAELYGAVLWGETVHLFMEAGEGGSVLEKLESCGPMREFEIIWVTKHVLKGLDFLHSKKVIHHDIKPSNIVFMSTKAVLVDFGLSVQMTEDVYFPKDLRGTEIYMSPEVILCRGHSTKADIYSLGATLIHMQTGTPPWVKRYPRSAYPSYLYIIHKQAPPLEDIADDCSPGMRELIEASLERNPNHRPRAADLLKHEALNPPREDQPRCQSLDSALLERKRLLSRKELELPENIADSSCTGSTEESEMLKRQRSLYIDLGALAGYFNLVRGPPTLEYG
T8 sequence (P49674 whole entry): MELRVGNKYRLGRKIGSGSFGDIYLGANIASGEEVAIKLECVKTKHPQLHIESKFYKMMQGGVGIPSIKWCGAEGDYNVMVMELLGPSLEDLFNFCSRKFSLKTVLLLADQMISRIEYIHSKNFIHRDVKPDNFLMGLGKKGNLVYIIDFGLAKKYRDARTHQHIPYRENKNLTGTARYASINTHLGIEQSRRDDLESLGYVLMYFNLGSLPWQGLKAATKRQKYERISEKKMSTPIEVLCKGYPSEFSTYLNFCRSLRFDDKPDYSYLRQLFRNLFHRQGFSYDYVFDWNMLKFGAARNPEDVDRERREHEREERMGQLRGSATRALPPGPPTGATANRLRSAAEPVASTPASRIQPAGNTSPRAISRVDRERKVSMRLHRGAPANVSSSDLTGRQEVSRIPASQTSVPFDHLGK
T6 sequence (P42685 whole entry): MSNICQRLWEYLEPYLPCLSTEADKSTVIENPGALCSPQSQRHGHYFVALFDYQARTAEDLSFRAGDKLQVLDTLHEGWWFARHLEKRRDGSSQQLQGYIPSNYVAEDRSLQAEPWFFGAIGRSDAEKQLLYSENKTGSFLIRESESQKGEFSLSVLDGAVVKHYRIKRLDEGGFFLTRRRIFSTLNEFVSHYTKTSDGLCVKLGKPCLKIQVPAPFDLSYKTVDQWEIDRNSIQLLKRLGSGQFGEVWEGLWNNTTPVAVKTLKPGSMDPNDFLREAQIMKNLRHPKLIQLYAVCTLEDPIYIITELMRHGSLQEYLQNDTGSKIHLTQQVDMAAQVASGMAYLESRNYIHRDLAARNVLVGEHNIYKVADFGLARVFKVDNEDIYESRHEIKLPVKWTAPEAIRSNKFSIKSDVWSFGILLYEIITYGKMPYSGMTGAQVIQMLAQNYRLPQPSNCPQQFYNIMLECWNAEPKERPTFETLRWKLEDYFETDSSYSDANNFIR
T4 sequence (P31751 whole entry): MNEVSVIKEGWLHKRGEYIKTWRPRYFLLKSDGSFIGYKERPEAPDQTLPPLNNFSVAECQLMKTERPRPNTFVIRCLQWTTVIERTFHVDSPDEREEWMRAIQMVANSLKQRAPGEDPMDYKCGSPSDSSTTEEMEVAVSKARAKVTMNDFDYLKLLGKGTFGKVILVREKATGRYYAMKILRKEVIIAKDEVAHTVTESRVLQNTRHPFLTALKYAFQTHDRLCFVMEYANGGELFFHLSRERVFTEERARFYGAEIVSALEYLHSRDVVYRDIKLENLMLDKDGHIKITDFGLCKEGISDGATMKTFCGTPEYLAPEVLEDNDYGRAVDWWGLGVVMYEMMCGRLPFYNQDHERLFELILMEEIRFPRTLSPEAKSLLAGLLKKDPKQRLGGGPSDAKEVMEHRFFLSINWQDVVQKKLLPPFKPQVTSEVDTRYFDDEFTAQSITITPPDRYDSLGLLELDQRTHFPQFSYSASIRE

Compound	remaining activity at 5 µM [1] [%]	remaining activity at 5 µM [2] [%]	remaining activity at 5 µM [3] [%]	remaining activity at 5 µM [4] [%]	remaining activity at 5 µM [5] [%]	remaining activity at 5 µM [6] [%]	remaining activity at 5 µM [7] [%]	remaining activity at 5 µM [8] [%]	remaining activity at 5 µM [10] [%]	remaining activity at 5 µM [11] [%]	remaining activity at 5 µM [12] [%]	remaining activity at 5 µM [13] [%]	remaining activity at 5 µM [14] [%]	other results
O=C(Nc1cnn(-c2csc(C(=O)NC3COC3)c2)c1)Nc1ccccc1Cl [Compound 17, 4-(4-(3-(2-chlorophenyl)ureido)-1H-pyrazol-1-yl)-N-(oxetan-3-yl)thiophene-2-carboxamide]	100	97.8	95.8	89.5	92.7	97.4	113	89.6	101	84.2	97.5	66	113	remaining activity at 5 µM ([9]; read-out: % Enzyme Activity (relative to DMSO controls), kinase SIK1): 102%
O=C(Nc1cnn(-c2csc(C(=O)NC3COC3)c2)c1)Nc1c(F)cccc1Cl [Compound 25, 4-(4-(3-(2-chloro-6-fluorophenyl)ureido)-1H-pyrazol-1-yl)-N-(oxetan-3-yl)thiophene-2-carboxamide]	87.8	98.1	94.9	104	93.6	95.6	133	88.6	91	91.5	100	93.2	81.6	remaining activity at 5 µM ([9]; kinase SIK1, read-out: % Enzyme Activity (relative to DMSO controls)): 98.3%
Cc1sc(C(=O)NC2COC2)cc1-n1cc(NC(=O)Nc2c(F)cccc2Cl)cn1 [Compound 27, 4-(4-(3-(2-chloro-6-fluorophenyl)ureido)-1H-pyrazol-1-yl)-5-methyl-N-(oxetan-3-yl)thiophene-2-carboxamide]														remaining activity at 10 µM ([1]; 10 uM): 81%; remaining activity at 10 µM ([2]; 10 uM): 113%; remaining activity at 10 µM ([3]; 10 uM): 102%; remaining activity at 10 µM ([4]; 10 uM): 89.8%; remaining activity at 10 µM ([5]; 10 uM): 105%; remaining activity at 10 µM ([6]; 10 uM): 87.3%; remaining activity at 10 µM ([7]; 10 uM): 93%; remaining activity at 10 µM ([8]; 10 uM): 97.9%; remaining activity at 10 µM ([9]; read-out: % Enzyme Activity (relative to DMSO controls), kinase SIK1, 10 uM): 99.8%; remaining activity at 10 µM ([10]; 10 uM): 88.7%; remaining activity at 10 µM ([11]; 10 uM): 92.4%; remaining activity at 10 µM ([12]; 10 uM): 118%; remaining activity at 10 µM ([13]; 10 uM): 102%; remaining activity at 10 µM ([14]; 10 uM): 67.3%

Source: patent US20240246942A1, “KINASE INHIBITORS FOR THE TREATMENT OF NEURODEGENERATIVE DISEASES” (priority 2020, published 2024)
